From patent US5650404A, “Therapeutic composition for pancreatitis” (Senju Pharmaceutical Co., Ltd., priority 1994, dated 1997)
Read-outs that look alike come from different tables or passages of the source.

Key:
[1] = test system: ethionine-induced pancreatitis (serum amylase); assay: Effect on serum amylase elevation in ethionine-induced severe pancreatitis; assay type: in vivo, female BALB/c mice; details: for serum amylase level, 0 Hr: 0 Hr (start of ethionine-supplemented food, before dosing at 12 h); for serum amylase level, 0 Hr / serum amylase level, 24 Hr / serum amylase level, 48 Hr: p.o., EPC-K 141 mg/10 ml/kg, camostat 100 mg/10 ml/kg, mean ± S.E.; for serum amylase level, 24 Hr: 24 h after beginning of ethionine-supplemented food; for serum amylase level, 48 Hr: 48 h after beginning of ethionine-supplemented food, *1 (EPC-K): p < 0.01 vs distilled water
Description: The therapeutic efficacy of the compound was tested in ethionine-induced pancreatitis which is a model of severe human pancreatitis. The efficacy evaluation was based on the degree of inhibition of the release of amylase into blood which is an indicator of pancreatitis.
(1) Investigational Substance
L-Ascorbyl DL-α-tocopheryl phosphate potassium (briefly, EPC-K) 141 mg/10 ml/kg, p.o.
Camostat monomethanesulfonate (Ono Pharmaceutical) 100 mg/10 ml/kg, p.o.
Animals used: Thirty female BALB/c mice weighing about 18 g as purchased from Japan SLC were used in this experiment. The mice were accommodated in an animal room controlled at 24°±4° C. and 55±15% R. H. and while the animals in the ethionine-induced pancreatitis groups were given low-choline, 0.54 ethionine-supplemented food (prepared by SLC) ad libitum, the animals in the untreated control group were given Labo MR Stock (tradename) (Nihon Nosan Kogyo) ad libitum. Water was freely available for animals in the ethionine pancreatitis groups and the untreated group. The mice were deprived of food 12 hours before commencement of feeding.
Method: Each test substance was administered 12 hours after the beginning of intake of ethionine-supplemented food. Blood sampling was made 24 and 48 hours after the beginning of intake of ethionine-supplemented food and the serum amylase levels were determined.

LD50 (toxicity) = details: rat, in vivo, rats

Row | SMILES | serum amylase level, 0 Hr [1] | serum amylase level, 24 Hr [1] | serum amylase level, 48 Hr [1] | LD50 (LD50 (toxicity); iv, i.v., read-out: LD50 i.v.) | LD50 (LD50 (toxicity); po, p.o., read-out: LD50 p.o.) | inhibition of serum amylase elevation (in words) ([1]; 48 h, compared with distilled water group)
1 | Cc1c(C)c2c(c(C)c1OP(=O)(O)OC1=C(O)[C@@H]([C@@H](O)CO)OC1=O)CCC(C)(CCCC(C)CCCC(C)CCCC(C)C)O2 (mixture of isomers) [EPC-K, L-Ascorbyl DL-α-tocopheryl phosphate potassium] | 14573 ± 3132 mU/ml | 12926 ± 2217 mU/ml | 16257 ± 9763 mU/ml | ≥ 100 mg/kg | ≥ 5000 mg/kg | –
2 | CN(C)C(=O)COC(=O)Cc1ccc(OC(=O)c2ccc(NC(=N)N)cc2)cc1 [Camostat monomethanesulfonate] | 13978 ± 1012 mU/ml | 12628 ± 1542 mU/ml | 36288 ± 13921 mU/ml | – | – | no inhibitory effect on amylase elevation
